Structures can show the parent of a compound that is named as a salt.

This test deals with Jurkat HIV-luciferase clones. Kind of test: Jurkat latency reversal assay. Particulars: Homo sapiens, Jurkat, 48 h. Format: cell-based. In a few lines:
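Three pooled Jurkat HIV-luciferase clones (C16, I15, N6; 5,000 cells/well, maintained with 500 nM EFV) exposed to 3-fold, 14-point titrations (10 μM to 2.1 pM, 0.5% DMSO) in duplicate for 48 h at 37 °C. Luciferase luminescence read; EC50 and maximal % activation versus vehicle from four-parameter logistic fit.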
One may read the EC50 as the concentration giving half of the maximal effect. For the compound `CN[C@@H](C)C(=S)N[C@H]1CCS[C@H]2CC(C)(C)[C@@H](C(=O)N[C@H](COCCCn3cc(COC[C@@H](NC(=O)[C@H]4N5C(=O)[C@@H](NC(=S)[C@H](C)NC)CCS[C@H]5CC4(C)C)c4ccccc4)nn3)c3ccccc3)N2C1=O` [compound 53, (4S,7S,9aS)-N-[(1S)-2-[3-(4-{[(2S)-2-{[(4S,7S,9aS)-8,8-dimethyl-4-[(2S)-2-(methylamino)propanethioamido]-5-oxo-octahydropyrrolo[2,1-b][1,3]thiazepin-7-yl]formamido}-2-phenylethoxy]methyl}-1H-1,2,3-triazol-1-yl)propoxy]-1-phenylethyl]-8,8-dimethyl-4-[(2S)-2-(methylamino)propanethioamido]-5-oxo-octahydropyrrolo[2,1-b][1,3]thiazepine-7-carboxamide], the EC50 amounted to 178 nM.

Consider `CN[C@@H](C)C(=O)N[C@H]1CCS[C@H]2CC(C)(C)[C@@H](C(=O)N[C@H](COCc3ccc4ccc(COC[C@@H](NC(=O)[C@H]5N6C(=O)[C@@H](NC(=O)[C@H](C)NC)CCS[C@H]6CC5(C)C)c5ccccc5)cc4c3)c3ccccc3)N2C1=O` [compound 56, (4S,4′S,7S,7′S,9aS,9a′S)-N,N′-((1S,1′S)-((naphthalene-2,7-diylbis(methylene))bis(oxy))bis(1-phenylethane-2,1-diyl))bis(8,8-dimethyl-4-((S)-2-(methylamino)propanamido)-5-oxooctahydropyrrolo[2,1-b][1,3]thiazepine-7-carboxamide)], for which the EC50 is 2.9 nM.

For `CN[C@@H](C)C(=O)N[C@H]1CCS[C@H]2CC(C)(C)[C@@H](C(=O)N[C@H]3c4ccccc4C[C@H]3OCCCCCCCCCCO[C@@H]3Cc4ccccc4[C@@H]3NC(=O)[C@H]3N4C(=O)[C@@H](NC(=O)[C@H](C)NC)CCS[C@H]4CC3(C)C)N2C1=O` [compound 57, (4S,4′S,7S,7′S,9aS,9a′S)-N,N′-((1S,1′S,2R,2′R)-(decane-1,10-diylbis(oxy))bis(2,3-dihydro-1H-indene-2,1-diyl))bis(8,8-dimethyl-4-((S)-2-(methylamino)propanamido)-5-oxooctahydropyrrolo[2,1-b][1,3]thiazepine-7-carboxamide) dihydrochloride], the EC50 was 8.5 nM.

For `CN[C@@H](C)C(=O)N[C@H]1CCS[C@H]2CC(C)(C)[C@@H](C(=O)N[C@H](COCCCCCCCCOC[C@@H](NC(=O)[C@H]3N4C(=O)[C@@H](NC(=O)[C@H](C)NC)CCS[C@H]4CC3(C)C)c3ccccc3)c3ccccc3)N2C1=O` [compound 58, (4S,4′S,7S,7′S,9aS,9a′S)-N,N′-((1S,1′S)-(octane-1,8-diylbis(oxy))bis(1-phenylethane-2,1-diyl))bis(8,8-dimethyl-4-((S)-2-(methylamino)propanamido)-5-oxooctahydropyrrolo[2,1-b][1,3]thiazepine-7-carboxamide) dihydrochloride], the EC50 is 4.5 nM.

In the case of `CN[C@@H](C)C(=O)N[C@H]1CCS[C@H]2CC(C)(C)[C@@H](C(=O)N[C@H](COCCCCCCCCCCOC[C@@H](NC(=O)[C@H]3N4C(=O)[C@@H](NC(=O)[C@H](C)NC)CCS[C@H]4CC3(C)C)c3ccccc3)c3ccccc3)N2C1=O` [compound 60, (4S,4′S,7S,7′S,9aS,9a′S)-N,N′-((1S,1′S)-(decane-1,10-diylbis(oxy))bis(1-phenylethane-2,1-diyl))bis(8,8-dimethyl-4-((S)-2-(methylamino)propanamido)-5-oxooctahydropyrrolo[2,1-b][1,3]thiazepine-7-carboxamide) dihydrochloride], the EC50 was 3.5 nM.

(Values after US11492361B2, “Compounds useful in HIV therapy” (GlaxoSmithKline Intellectual Property Development Limited, priority 2018, dated 2022).)
